Measurements from patent US12178804B2, “Salts of cycloserine compounds and applications thereof” (SyneuRx International (Taiwan) Corp., priority 2018, dated 2024).

Experiments:
[1] = Hygroscopicity test at room temperature/95% RH in an open system; format: physicochemical
[2] = Stress study at 40° C./75% RH in closed system (appearance, HPLC)

Compound	water absorbed at the 30th day ([1]; FIG. 41)	hygroscopicity compared with D-cycloserine and the carboxylic acids alone [1]	water absorbed at the 30th day ([1]; FIG. 42)	water absorbed at the 60th day ([1]; FIG. 40)	other results
O=C(O)/C=C\C(=O)O [Maleic acid, maleic acid]	100.4%	–	–	–	–
N[C@@H]1CONC1=O.O=C(O)/C=C\C(=O)O [D-cycloserine maleate (1:1) salt form, D-cycloserine maleate]	1.3%	much less hygroscopic	–	–	–
N[C@@H]1CONC1=O [D-cycloserine]	41.3%	–	43.3%	62.5%	appearance after one month stress study ([2]; 40° C./75% RH, one month): disintegrated and turned into dark yellow
O=C(O)[C@@H](O)[C@H](O)C(=O)O [D-tartaric acid]	–	–	177.0%	–	stability by HPLC after stress study ([2]; 40/75% RH, 30 days, FIG. 39): stable
O=C(O)[C@H](O)[C@@H](O)C(=O)O [L-tartaric acid]	–	–	–	244.6%	–
N[C@@H]1CONC1=O.N[C@@H]1CONC1=O.O=C(O)C(O)C(O)C(=O)O [D-cycloserine D-tartrate]	–	much less hygroscopic	1.3%	–	hygroscopicity (in words) ([1]; 30 days, FIG. 42): not hygroscopic
N[C@@H]1CONC1=O.O=C(O)C(O)C(O)C(=O)O [D-cycloserine L-tartrate]	–	much less hygroscopic	–	18.9%	hygroscopicity (in words) ([1]; 30 days, FIG. 41): not hygroscopic; hygroscopicity (in words) ([1]; 60 days, FIG. 40): not hygroscopic
N[C@@H]1CONC1=O [D-cycloserine from Strides Shasun Ltd., D-cycloserine]	41.9%	–	42.7%	59.2%	–
